Counter-ions that a name gives are not always drawn. Like-named read-outs stand apart in the source and are kept apart here.
Assays:
[1] = tested on: NCI-H292 lung cancer cells; experiment: FDA drug screening, complete media vs cholesterol-free media without statin (TABLE 1); assay type: cell-based, human
[2] = tested on: NCI-H292 lung cancer cells; experiment: FDA drug screening, complete media vs cholesterol-free media with simvastatin (TABLE 2); assay type: cell-based, human
[3] = Complete minus Cholesterol-free, greater than 0 enhanced anti-cancer activity, about 0 neutral, below 0 antagonist
[4] = NCI-H292 cells, FDA drug library screen, cholesterol-free media without statin
[5] = NCI-H292 cells, FDA drug library screen, complete media
[6] = NCI-H292 cells, FDA library drug in cholesterol-free media with simvastatin 0.04 μM
[7] = NCI-H292 cells, FDA library drug in complete media
[8] = complete media vs cholesterol-free media + simvastatin (0.04 μM), >0 enhanced anti-cancer activity, about 0 neutral, <0 antagonist
[9] = Complete minus Cholesterol-free, >0 enhanced anti-cancer activity, about 0 neutral, <0 antagonist
[10] = NCI-H292 cells, cholesterol-free media without statin
[11] = NCI-H292 cells, drug in cholesterol-free media with simvastatin 0.04 μM
[12] = NCI-H292 cells, drug in complete media
[13] = complete vs cholesterol-free media, greater than 0 enhanced anti-cancer activity, about 0 neutral, below 0 antagonists
[14] = NCI-H292 cells, FDA drug library screen, cholesterol-free media with simvastatin 0.04 μM
[15] = NCI-H292 cells, cholesterol-free media without statin, FDA drug library screen
[16] = NCI-H292 cells, complete media, FDA drug library screen
[17] = Complete minus Cholesterol-free, greater than 0 enhanced anti-cancer activity, about 0 neutral, below 0 antagonists
[18] = NCI-H292 cells in cholesterol-free media without statin
[19] = NCI-H292 cells in complete media
[20] = complete media minus cholesterol-free media + simvastatin, >0 enhanced anti-cancer activity, about 0 neutral, <0 antagonist
[21] = complete media minus cholesterol-free media + simvastatin, […]
[22] = complete vs cholesterol-free media, >0 enhanced anti-cancer activity, about 0 neutral, <0 antagonist
[23] = Complete minus Cholesterol-free, […]
[24] = complete media vs cholesterol-free media + simvastatin (0.04 μM), […]
[25] = NCI-H292 cells, cholesterol-free media with simvastatin 0.04 μM, FDA drug library screen (TABLE 2)
[26] = NCI-H292 cells, complete media, FDA drug library screen (TABLE 2)
[27] = complete media minus cholesterol-free media + simvastatin (0.04 μM), >0 enhanced anti-cancer activity, about 0 neutral, <0 antagonist

C[C@H](O)[C@H](O)[C@H]1CNc2nc(N)[nH]c(=O)c2N1 [Tetrahydrobiopterin]
Difference [1, 3]: −0.10 | Cholesterol-free [1, 4]: 0.9498 | Complete [1, 5]: 0.8545 | Cholesterol-free media + simvastatin (0.04 μM) [2, 6]: 1.389 | Complete Media [2, 7]: 1.025 | Difference [2, 8]: −0.36

C[C@]12C=CC(=O)N[C@@H]1CC[C@@H]1[C@@H]2CC[C@]2(C)[C@@H](C(=O)Nc3cc(C(F)(F)F)ccc3C(F)(F)F)CC[C@@H]12 [Dutasteride]
Cholesterol-free [1]: 0.7204 | Complete [1]: 0.8443 | Difference [1]: 0.12 | Cholesterol-free media + simvastatin (0.04 μM) [2]: 1.633 | Complete Media [2]: 1.205 | Difference [2]: −0.43

CC1CC(OC(=O)C(O)c2ccccc2)CC(C)(C)C1 (stereo not drawn) [Cyclandelate]
Difference [1, 9]: −0.23 | Cholesterol-free [1, 10]: 1.162 | Complete ([1]; NCI-H292 cells, complete media): 0.935 | Cholesterol-free media + simvastatin (0.04 μM) [2, 11]: 1.188 | Complete Media [2, 12]: 0.9668 | Difference [2, 8]: −0.22

Nc1c2c(nc3ccccc13)CCCC2 [Tacrine (hydrochloride)]
Cholesterol-free [1, 10]: 1.218 | Complete ([1]; NCI-H292 cells, complete media): 0.7601 | Difference [1, 13]: −0.46 | Cholesterol-free media + simvastatin (0.04 μM) [2, 14]: 1.139 | Complete Media [2, 5]: 1.054 | Difference [2, 8]: −0.08

C=CC(=O)N1CCC[C@@H](n2nc(-c3ccc(Oc4ccccc4)cc3)c3c(N)ncnc32)C1 [Ibrutinib]
Difference [1, 9]: −0.07 | Cholesterol-free [1, 15]: 0.4459 | Complete [1, 16]: 0.3765 | Cholesterol-free media + simvastatin (0.04 μM) [2, 14]: 0.5962 | Complete Media [2, 5]: 0.4594 | Difference [2, 8]: −0.14

CCOc1ccc(Cc2cc([C@@H]3O[C@H](SC)[C@@H](O)[C@H](O)[C@H]3O)ccc2Cl)cc1 [Sotagliflozin]
Difference [1, 3]: −0.11 | Cholesterol-free [1, 4]: 1.101 | Complete [1, 5]: 0.9895 | Cholesterol-free media + simvastatin (0.04 μM) [2, 14]: 1.193 | Complete Media [2, 5]: 1.078 | Difference [2, 8]: −0.11

CCN(c1cc(-c2ccc(CN3CCOCC3)cc2)cc(C(=O)NCc2c(C)cc(C)[nH]c2=O)c1C)C1CCOCC1 [Tazemetostat]
Difference [1, 17]: −0.49 | Cholesterol-free [1, 18]: 1.722 | Complete [1, 19]: 1.228 | Cholesterol-free media + simvastatin (0.04 μM) [2, 14]: 0.9335 | Complete Media [2, 5]: 1.59 | Difference [2, 20]: 0.66

CC(C)OC(=O)C(C(=O)OC(C)C)=C1SC=CS1 [Malotilate]
Difference [1, 9]: −0.31 | Cholesterol-free [1, 10]: 1.163 | Complete ([1]; NCI-H292 cells, complete media): 0.8568 | Cholesterol-free media + simvastatin (0.04 μM) [2, 6]: 1.172 | Complete Media [2, 7]: 0.8557 | Difference [2, 8]: −0.32

Oxaliplatin
Cholesterol-free [1, 10]: 1.359 | Complete ([1]; NCI-H292 cells, complete media): 0.9211 | Difference ([1]; complete vs cholesterol-free media, […]): −0.44 | Cholesterol-free media + simvastatin (0.04 μM) [2, 14]: 0.8725 | Difference [2, 21]: 0.17

C[C@H](O)C(=O)O [L-Lactic acid]
Cholesterol-free [1, 10]: 1.267 | Complete ([1]; NCI-H292 cells, complete media): 0.8145 | Difference [1, 13]: −0.45 | Cholesterol-free media + simvastatin (0.04 μM) [2, 11]: 1.063 | Complete Media [2, 12]: 0.8704 | Difference [2, 8]: −0.19

O=c1c(O[C@@H]2O[C@H](CO)[C@H](O)[C@H](O)[C@H]2O)c(-c2ccc(O)c(O)c2)oc2cc(O)cc(O)c12 [Hyperoside]
Difference [1, 9]: −0.03 | Cholesterol-free [1, 15]: 0.9192 | Complete [1, 16]: 0.8906 | Cholesterol-free media + simvastatin (0.04 μM) [2, 14]: 0.9665 | Complete Media [2, 5]: 0.8144 | Difference [2, 8]: −0.15

CN(C)CCOCC(=O)NC12CC3CC(CC(C3)C1)C2 [Tromantadine (hydrochloride)]
Difference [1, 9]: −0.20 | Cholesterol-free [1, 10]: 0.9414 | Complete ([1]; NCI-H292 cells, complete media): 0.7414 | Cholesterol-free media + simvastatin (0.04 μM) [2, 11]: 1.251 | Complete Media [2, 12]: 1.005 | Difference [2, 8]: −0.25

N[C@@H](CSCCCO)C(=O)O [Fudosteine]
Cholesterol-free [1, 15]: 1.084 | Complete [1, 16]: 1.177 | Difference [1, 22]: 0.09 | Cholesterol-free media + simvastatin (0.04 μM) [2, 14]: 1.309 | Complete Media [2, 5]: 1.163 | Difference [2, 8]: −0.15

OC(c1ccccc1)(c1ccccc1)C12CC[N+](CCOCc3ccccc3)(CC1)CC2.[Br-] [Umeclidinium (bromide)]
Cholesterol-free [1]: 0.5848 | Complete [1]: 0.7554 | Difference [1]: 0.17 | Cholesterol-free media + simvastatin (0.04 μM) [2]: 1.336 | Complete Media [2]: 0.9344 | Difference [2]: −0.40

Nc1ccc(C(=O)NCC(=O)[O-])cc1.[Na+] [Aminohippurate (sodium)]
Difference [1, 23]: −0.25 | Cholesterol-free [1, 10]: 1.249 | Complete ([1]; NCI-H292 cells, complete media): 0.9961 | Cholesterol-free media + simvastatin (0.04 μM) [2, 11]: 1.368 | Complete Media [2, 12]: 1.199 | Difference [2, 24]: −0.17

Cc1ncc(CO)c(CO)c1O.O=C1CC[C@@H](C(=O)O)N1 [Metadoxine]
Difference [1, 23]: −0.12 | Cholesterol-free [1, 4]: 1.129 | Complete [1, 5]: 1.01 | Cholesterol-free media + simvastatin (0.04 μM) [2, 14]: 1.163 | Complete Media [2, 5]: 1.057 | Difference [2, 24]: −0.11

CC1(C)S[C@@H]2[C@H](NC(=O)[C@H](N)c3ccc(O)cc3)C(=O)N2[C@H]1C(=O)[O-].[Na+] [Amoxicillin (sodium)]
Difference [1, 3]: −0.16 | Cholesterol-free [1, 4]: 0.8965 | Complete [1, 5]: 0.7329 | Cholesterol-free media + simvastatin (0.04 μM) [2, 11]: 0.9358 | Complete Media [2, 12]: 0.759 | Difference [2, 8]: −0.18

COc1cc2ncnc(Nc3ccc(F)c(Cl)c3)c2cc1NC(=O)/C=C/CN1CCCCC1 [Dacomitinib]
Difference [1, 3]: −0.12 | Cholesterol-free [1, 4]: 0.3597 | Complete [1, 5]: 0.2371 | Cholesterol-free media + simvastatin (0.04 μM) ([2]; NCI-H292 cells, cholesterol-free media with simvastatin 0.04 μM, cell growth value in FDA drug screen): 0.3301 | Complete Media ([2]; NCI-H292 cells, complete media, cell growth value in FDA drug screen): 0.437 | Difference [2, 20]: 0.11

O=c1[nH]cnc2c1ncn2[C@@H]1O[C@H](CO)[C@@H](O)[C@H]1O [Inosine]
Difference [1, 9]: 0.02 | Cholesterol-free [1, 15]: 0.9203 | Complete [1, 16]: 0.941 | Cholesterol-free media + simvastatin (0.04 μM) [2, 14]: 0.924 | Complete Media [2, 5]: 1.085 | Difference [2, 20]: 0.16

Nc1nc(=O)c2c([nH]1)NC[C@H](CNc1ccc(C(=O)N[C@@H](CCC(=O)[O-])C(=O)[O-])cc1)N2C=O.[Ca+2] [Levoleucovorin (Calcium)]
Difference [1, 23]: −0.05 | Cholesterol-free [1, 15]: 1.535 | Complete [1, 16]: 1.487 | Cholesterol-free media + simvastatin (0.04 μM) [2, 14]: 1.534 | Complete Media [2, 5]: 1.758 | Difference [2, 21]: 0.22

CC(C)c1cc2c(cc1S(=O)(=O)O)[C@@]1(C)CCC[C@@](C)(C(=O)O)[C@@H]1CC2 [Ecabet (sodium)]
Cholesterol-free [1, 10]: 1.17 | Complete ([1]; NCI-H292 cells, complete media): 0.8018 | Difference [1, 13]: −0.37 | Cholesterol-free media + simvastatin (0.04 μM) [2, 11]: 1.124 | Complete Media [2, 12]: 0.9102 | Difference [2, 8]: −0.21

C[C@H]1C(=O)O[C@@H]2CCN3CC=C(COC(=O)[C@](C)(O)[C@]1(C)O)[C@H]23 [Monocrotaline]
Difference [1, 23]: −0.18 | Cholesterol-free [1, 4]: 1.01 | Complete [1, 5]: 0.8289 | Cholesterol-free media + simvastatin (0.04 μM) [2, 11]: 1.209 | Complete Media [2, 12]: 1.046 | Difference [2, 24]: −0.16

CN(CCN1CCC(OC(=O)Nc2ccccc2-c2ccccc2)CC1)C(=O)c1ccc(CN2CCC(C(N)=O)CC2)cc1 [Revefenacin]
Complete [1]: 0.9642 | Difference [1]: −0.65 | Cholesterol-free media + simvastatin (0.04 μM) [2]: 1.184 | Complete Media [2]: 1.038 | Difference [2]: −0.15

CC1=NN(c2ccccc2)C(=O)C1 [Edaravone]
Difference [1, 3]: −0.18 | Cholesterol-free [1, 4]: 1.236 | Complete [1, 5]: 1.052 | Cholesterol-free media + simvastatin (0.04 μM) [2, 25]: 1.019 | Complete Media [2, 26]: 1.02 | Difference [2, 27]: 0.00

O=C(Nc1ccc(O)cc1)c1ccccc1O [Osalmid]
Cholesterol-free [1, 15]: 1.209 | Complete [1, 16]: 1.432 | Difference [1, 22]: 0.22 | Cholesterol-free media + simvastatin (0.04 μM) [2, 25]: 0.9033 | Complete Media [2, 26]: 0.8951 | Difference [2, 27]: −0.01

Chlorpheniramine (maleate)
Difference [1, 17]: −0.51 | Cholesterol-free [1, 18]: 1.451 | Complete [1, 19]: 0.9428 | Cholesterol-free media + simvastatin (0.04 μM) [2, 25]: 1.426 | Complete Media [2, 26]: 1.414 | Difference [2, 27]: −0.01

N#Cc1cc(NC(=O)C(=O)O)c(Cl)c(NC(=O)C(=O)O)c1 [Lodoxamide]
Difference [1, 9]: −0.26 | Cholesterol-free [1, 10]: 1.144 | Complete ([1]; NCI-H292 cells, complete media): 0.8858 | Cholesterol-free media + simvastatin (0.04 μM) [2, 11]: 1.021 | Complete Media [2, 12]: 0.7589 | Difference [2, 8]: −0.26

CC1CNc2c(cccc2S(=O)(=O)N[C@@H](CCCNC(=N)N)C(=O)N2CC[C@@H](C)C[C@@H]2C(=O)O)C1 (stereo partly drawn) [Argatroban (monohydrate)]
Difference [1, 3]: −0.08 | Cholesterol-free [1, 4]: 1.232 | Cholesterol-free media + simvastatin (0.04 μM) [2, 11]: 1.179 | Complete Media [2, 12]: 0.9367 | Difference [2, 8]: −0.24

COc1ccc(C(=O)NCc2ccc(OCCN(C)C)cc2)cc1OC [Itopride (hydrochloride)]
Difference [1, 9]: −0.04 | Cholesterol-free [1, 15]: 1.141 | Complete [1, 16]: 1.104 | Cholesterol-free media + simvastatin (0.04 μM) [2, 6]: 1.711 | Complete Media [2, 7]: 1.056 | Difference [2, 8]: −0.65
